In article PMC12406203 (Journal of Medicinal Chemistry, 2025):

Legend:
[1] = biological target: T1, DCAMKL1 (Homo sapiens, UniProt O15075); experiment: KINOMEscan; type: binding
T1 construct: purchased Eurofins DiscoverX, LLC; host or cells: E. coli (T7 phage) or HEK-293
T1 sequence (O15075 1-740): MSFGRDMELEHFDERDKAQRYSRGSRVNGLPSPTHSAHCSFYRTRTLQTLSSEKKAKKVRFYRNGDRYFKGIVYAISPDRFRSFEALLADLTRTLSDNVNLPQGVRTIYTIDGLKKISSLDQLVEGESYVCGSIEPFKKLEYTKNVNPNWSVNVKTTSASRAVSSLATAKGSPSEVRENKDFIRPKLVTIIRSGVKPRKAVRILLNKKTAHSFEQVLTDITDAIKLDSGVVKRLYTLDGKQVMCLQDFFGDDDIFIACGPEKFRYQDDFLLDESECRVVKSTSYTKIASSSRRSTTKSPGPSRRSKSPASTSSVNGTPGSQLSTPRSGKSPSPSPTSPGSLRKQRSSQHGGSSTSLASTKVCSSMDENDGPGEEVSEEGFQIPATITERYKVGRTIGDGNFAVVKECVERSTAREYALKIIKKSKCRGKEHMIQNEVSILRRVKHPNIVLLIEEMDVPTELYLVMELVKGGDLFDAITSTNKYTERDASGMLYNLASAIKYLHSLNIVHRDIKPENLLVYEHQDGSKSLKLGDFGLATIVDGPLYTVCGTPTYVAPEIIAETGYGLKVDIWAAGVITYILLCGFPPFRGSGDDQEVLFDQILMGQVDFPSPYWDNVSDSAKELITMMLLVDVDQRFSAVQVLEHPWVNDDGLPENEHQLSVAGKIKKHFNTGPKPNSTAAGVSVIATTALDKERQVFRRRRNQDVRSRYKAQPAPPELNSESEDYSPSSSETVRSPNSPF

[2] = biological target: T2, EGFR(L858R) (Homo sapiens, UniProt P00533, L858R); experiment: KINOMEscan; type: binding
T2 construct: purchased Eurofins DiscoverX, LLC; host or cells: E. coli (T7 phage) or HEK-293

[3] = tested on: AURKA
[4] = tested on: ZAP70
[5] = tested on: TYK2(JH1domain-catalytic)
[6] = tested on: TLR4, COX-2, NLRP3, cPLA2 levels in brains of LPS-treated mice; experiment: Western blot of brains of LPS-treated mice (ex vivo); type: in vivo; conditions: 94, 95: 10 mg/kg i.p.; rivastigmine 1 mg/kg i.p.; vs LPS-treated control
Protocol: After the completion of cognitive assays carried out in the LPS model, the mice were sacrificed, and their brains were collected and stored for further analysis. In the ex vivo part of the study, murine brains were homogenized using T-PER mammalian protein extraction reagent (Thermo Fisher Scientific, Waltham, MA, USA) with protease (Merck Millipore, Burlington, MA, USA) and phosphatase inhibitors (Cayman Chemical, Ann Arbor, MI, USA). The total protein concentrations were determined using the Bradford reaction. Forty μg of the total proteins were solubilized in Laemmli buffer with 2% 2-mercaptoethanol and were subject to 10% SDS-polyacrylamide gel electrophoresis. The anticyclooxygenase 2 (COX-2, diluted 1:1000), antitoll-like receptor 4 (TLR4, diluted 1:1000), anticytosolic phospholipase A2 (cPLA2, 1:1000), and anti-inflammasome (NLPR3, diluted 1:500) were used (Thermo Fisher Scientific, Waltham, MA, USA). The endogenous control was β-actin (1:1000) (Thermo Fisher Scientific, Waltham, MA, USA). The secondary antibody was antirabbit IgG (HRP) diluted 1:2000 (Thermo Fisher Scientific, Waltham, MA, USA). Proteins were detected using the Clarity Western ECL Luminol Substrate (Bio-Rad, Hercules, CA, USA). Chemi Doc Camera with Image Lab 6.1 software (Bio-Rad) was used to quantify the integrated optical density of the bands. The results were normalized to the data obtained for β-actin after stripping the PVDF membrane using Restore Western Blot Stripping Buffer (Thermo Fisher Scientific, Waltham, MA, USA) and expressed as relative to the control. This thorough process ensures the validity and reliability of the results.

[7] = biological target: hBChE (Homo sapiens, UniProt P06276); experiment: biochemical
Protocol: The inhibitory potencies of the compounds against the ChEs were determined using the method of Ellman. […] The final content of DMSO was always 1% [v/v]. […] The initial velocities in the presence (v i ) and absence (v 0) of the test compounds were calculated. The inhibitory potencies were expressed as the residual activities, according to RA = (v i – b)/(v 0 – b), where b is the blank value using phosphate buffer without ChEs. For IC50 determinations, at least seven different concentrations for each compound were used. The IC50 values were obtained by plotting the residual ChE activities against the applied inhibitor concentrations, with the experimental data fitted to a four-parameter logistic function (GraphPad Prism 10.0).

[8] = tested on: RSK2 (Kin.Dom.1-N-terminal)
[9] = tested on: AXL
[10] = tested on: JNK2
[11] = tested on: RAF1
[12] = tested on: SRPK3
[13] = hBChE IC50 ± SEM, two independent experiments, each in triplicate
[14] = in vitro hBChE IC50, IC50 expressed as concentration in ng/mL

Sequence of hBChE (P06276 29-602): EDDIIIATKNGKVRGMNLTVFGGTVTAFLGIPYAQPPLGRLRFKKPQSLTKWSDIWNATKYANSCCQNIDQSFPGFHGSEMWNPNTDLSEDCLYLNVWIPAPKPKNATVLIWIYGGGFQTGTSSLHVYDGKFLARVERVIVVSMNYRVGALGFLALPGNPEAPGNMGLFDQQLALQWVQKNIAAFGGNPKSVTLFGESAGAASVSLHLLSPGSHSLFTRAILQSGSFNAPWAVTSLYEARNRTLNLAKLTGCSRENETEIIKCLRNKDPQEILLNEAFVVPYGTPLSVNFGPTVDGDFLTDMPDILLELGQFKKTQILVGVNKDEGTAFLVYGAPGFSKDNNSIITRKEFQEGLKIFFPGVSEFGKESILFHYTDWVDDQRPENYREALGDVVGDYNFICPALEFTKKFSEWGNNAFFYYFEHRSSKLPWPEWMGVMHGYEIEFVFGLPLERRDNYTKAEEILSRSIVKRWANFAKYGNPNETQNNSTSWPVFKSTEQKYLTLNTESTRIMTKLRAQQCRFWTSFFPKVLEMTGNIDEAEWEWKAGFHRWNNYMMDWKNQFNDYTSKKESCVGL

Question: What does the source list for `CN(C)CCNC(=O)c1cc2c(cnn2CC2CCCCC2)cc1Cc1ccc(F)cc1F` [Compound 95, 1-(Cyclohexylmethyl)-5-(2,4-difluorobenzyl)-N-(2-(dimethylamino)ethyl)-1H-indazole-6-carboxamide]?
Answer: RA @ 1000nM [1]: 100%; RA @ 10000nM [1]: 100%; RA @ 1000nM [2]: 100%; RA @ 10000nM [2]: 100%; RA @ 1000nM [3]: 95%; RA @ 10000nM [3]: 93%; RA @ 1000nM [4]: 100%; RA @ 10000nM [4]: 100%; RA @ 1000nM [5]: 89%; RA @ 10000nM [5]: 75%; brain cPLA2 expression [6]: no difference; brain levels of TLR4, COX-2, and NLRP3 [6]: significantly lower levels; IC50 [7, 13]: 772 ± 57 nM; IC50 [7, 14]: 770 nM; RA @ 1000nM [8]: 94%; RA @ 10000nM [8]: 94%; RA @ 1000nM [9]: 84%; RA @ 10000nM [9]: 83%; RA @ 1000nM [10]: 44%; RA @ 10000nM [10]: 3.8%; RA @ 1000nM [11]: 100%; RA @ 10000nM [11]: 100%; RA @ 1000nM [12]: 92%; RA @ 10000nM [12]: 99%

Question: With `CC(C)Cn1ncc2cc(Cc3ccc(F)cc3F)c(C(=O)NCCN(C)C)cc21` [Compound 94, 5-(2,4-Difluorobenzyl)-N-(2-(dimethylamino)ethyl)-1-isobutyl-1H-indazole-6-carboxamide] as the compound, how does the “RA @ 1000nM” value [1] read?
Answer: Its value is 100%.

Question: And the “RA @ 10000nM” value [1]?
Answer: The value was 100%.

Question: What about the “RA @ 1000nM” value [2] of the same compound?
Answer: The value was 100%.

Question: And the “RA @ 10000nM” value [2]?
Answer: Its value is 66%.

Question: And the RA @ 1000nM [3]?
Answer: Its RA @ 1000nM is 96%.

Question: And the RA @ 10000nM [3]?
Answer: The RA @ 10000nM was 93%.

Question: What about the RA @ 1000nM [4] of the same compound?
Answer: The RA @ 1000nM was 100%.

Question: And the RA @ 10000nM [4]?
Answer: The RA @ 10000nM was 79%.

Question: What about the RA @ 1000nM [5] of the same compound?
Answer: The RA @ 1000nM was 78%.

Question: What about the RA @ 10000nM [5] of the same compound?
Answer: Its RA @ 10000nM is 79%.

Question: And the “brain cPLA2 expression” value [6]?
Answer: The value was “no difference”.

Question: What about the “brain levels of TLR4, COX-2, and NLRP3” value [6] of the same compound?
Answer: Its value is “significantly lower levels”.

Question: And the IC50 [7, 13]?
Answer: Its IC50 is 652 ± 112 nM.

Question: What about the IC50 [7, 14] of the same compound?
Answer: Its IC50 is 651 nM.

Question: And the RA @ 1000nM [8]?
Answer: The RA @ 1000nM was 86%.

Question: And the RA @ 10000nM [8]?
Answer: The RA @ 10000nM was 65%.

Question: What about the RA @ 1000nM [9] of the same compound?
Answer: The RA @ 1000nM was 97%.

Question: And the RA @ 10000nM [9]?
Answer: Its RA @ 10000nM is 89%.

Question: What about the RA @ 1000nM [10] of the same compound?
Answer: Its RA @ 1000nM is 52%.

Question: What about the RA @ 10000nM [10] of the same compound?
Answer: The RA @ 10000nM was 8.3%.

Question: What about the RA @ 1000nM [11] of the same compound?
Answer: The RA @ 1000nM was 100%.

Question: And the RA @ 10000nM [11]?
Answer: The RA @ 10000nM was 100%.

Question: And the RA @ 1000nM [12]?
Answer: The RA @ 1000nM was 77%.

Question: And the RA @ 10000nM [12]?
Answer: The RA @ 10000nM was 100%.
